Calls of active or inactive are those of the source. The calls are words filed in the database; no cut-off is given here.
How the values were obtained:
[1] = Toxicity in NCG mouse xenografted with human RPMI-8226 cells assessed as body weight loss at 50 ug administered intratumorally every 2 days; settings: in vivo, other, 48 h, route it(Intratumoral), dose 50 µg
RPMI-8226 [2] = test: Induction of apoptosis in human RPMI-8226 cells assessed as proportion of necrotic cells at 0.5 uM incubated for 24 hrs by AnnexinV-FITC/PI staining based flow cytometry (reference value: 0.49%); format: functional, cell-based
RPMI-8226 [3] = test: Induction of apoptosis in human RPMI-8226 cells assessed as proportion of early apoptotic cells at 0.5 uM incubated for 24 hrs by AnnexinV-FITC/PI staining based flow cytometry (reference value: 10.63%); format: functional, cell-based
RPMI-8226 [4] = test: Induction of apoptosis in human RPMI-8226 cells assessed as proportion of late apoptotic cells at 2.5 uM incubated for 24 hrs by AnnexinV-FITC/PI staining based flow cytometry (reference value: 4.18%); format: functional, cell-based
RPMI-8226 [5] = test: Antitumor activity against human RPMI-8226 cells xenografted in NCG mouse assessed as tumor growth inhibition at 50 ug administered intratumorally every 2 days by vernier caliper analysis; format: functional; settings: dose 50 µg; route it(Intratumoral)
RPMI-8226 [6] = test: Antiproliferative activity against human RPMI-8226 cells assessed as inhibition of cell proliferation incubated for 48 hrs by CCK8 assay; format: functional, cell-based; settings: RPMI-8226, 48 h
RPMI-8226 [7] = test: Induction of apoptosis in human RPMI-8226 cells assessed as proportion of viable cells at 2.5 uM incubated for 24 hrs by AnnexinV-FITC/PI staining based flow cytometry (reference value: 84.71%); format: functional, cell-based
RPMI-8226 [8] = test: Induction of cell cycle arrest in human RPMI-8226 cells assessed as proportion of cells at S phase at 2.5 uM incubated for 24 hrs by PI staining based flow cytometry (reference value: 46.7%); format: functional
[9] = Toxicity in NCG mouse xenografted with human RPMI-8226 cells assessed as animal's death at 50 ug administered intratumorally every 2 days; settings: in vivo, other, 48 h, route it(Intratumoral), dose 50 µg
RPMI-8226 [10] = test: Induction of apoptosis in human RPMI-8226 cells assessed as proportion of late apoptotic cells at 0.5 uM incubated for 24 hrs by AnnexinV-FITC/PI staining based flow cytometry (reference value: 4.18%); format: functional, cell-based
RPMI-8226 [11] = test: Induction of apoptosis in human RPMI-8226 cells assessed as proportion of necrotic cells at 2.5 uM incubated for 24 hrs by AnnexinV-FITC/PI staining based flow cytometry (reference value: 0.49%); format: functional, cell-based
RPMI-8226 [12] = test: Induction of cell cycle arrest in human RPMI-8226 cells assessed as proportion of cells at G2/M phase at 2.5 uM incubated for 24 hrs by PI staining based flow cytometry (reference value: 19.8%); format: functional
RPMI-8226 [13] = test: Antitumor activity against human RPMI-8226 cells xenografted in NCG mouse assessed as T/C ratio at 50 ug administered intratumorally every 2 days by vernier caliper analysis; format: functional; settings: dose 50 µg; route it(Intratumoral)
[14] = Toxicity in NCG mouse xenografted with human RPMI-8226 cells assessed as weakness at 50 ug administered intratumorally every 2 days; settings: in vivo, other, 48 h, route it(Intratumoral), dose 50 µg
RPMI-8226 [15] = test: Induction of apoptosis in human RPMI-8226 cells assessed as proportion of viable cells at 0.5 uM incubated for 24 hrs by AnnexinV-FITC/PI staining based flow cytometry (reference value: 84.71%); format: functional, cell-based
U-266 = test: Antiproliferative activity against human U-266 cells assessed as inhibition of cell proliferation incubated for 48 hrs by CCK8 assay; format: functional, cell-based; settings: U-266, 48 h
RPMI-8226 [16] = test: Induction of apoptosis in human RPMI-8226 cells assessed as proportion of early apoptotic cells at 2.5 uM incubated for 24 hrs by AnnexinV-FITC/PI staining based flow cytometry (reference value: 10.63%); format: functional, cell-based
RPMI-8226 [17] = test: Induction of cell cycle arrest in human RPMI-8226 cells assessed as proportion of cells at G1 phase at 2.5 uM incubated for 24 hrs by PI staining based flow cytometry (reference value: 33.5%); format: functional
MM1.S = test: Antiproliferative activity against human MM1.S cells assessed as inhibition of cell proliferation incubated for 48 hrs by CCK8 assay; format: functional, cell-based
[18] = Cytotoxicity against human L02 cells assessed as inhibition of cell proliferation incubated for 48 hrs by CCK8 assay; format: toxicity, cell-based

In the case of `O=C(CCCCCCNC(=O)c1cnc(N(c2ccccc2)c2ccccc2Cl)nc1)NO` [CITARINOSTAT], the Activity [1] is reported as “Non-Toxic”, the Activity (RPMI-8226 [2]) is reported as “Active” and the Activity (RPMI-8226 [3]) is reported as “Active”. For the same compound, the Activity (RPMI-8226 [4]) was “Active”, the TGI (RPMI-8226 [5]) was 46% and the IC50 (RPMI-8226 [6]) was 3.5 µM. The Activity (RPMI-8226 [7]) was “Active”, the Activity (RPMI-8226 [8]) was 44.7% and the Activity [9] was “Toxic”. For the same compound, the Activity (RPMI-8226 [10]) was “Active”, the Activity (RPMI-8226 [11]) was “Active” and the Activity (RPMI-8226 [12]) was 22.6%. The T/C (RPMI-8226 [13]) was 61%, the Activity [14] was “Toxic” and the Activity (RPMI-8226 [15]) was “Active”. For the same compound, the IC50 (U-266) was 4.3 µM, the Activity (RPMI-8226 [16]) was “Active” and the Activity (RPMI-8226 [17]) was 32.7%. The IC50 (MM1.S) was 2 µM and the IC50 at 48 h [18] was 15.2 µM.
